Molecular target: T1, human β2 adrenergic receptor (Homo sapiens, UniProt P07550)
T1 construct: expressed in transfected cells; membranes prepared from the cells
Assay: Radioligand binding assay on human β1 and β2 adrenergic receptors ([3H]dihydroalprenolol displacement)
Conditions: binding at β2 versus β1 adrenergic receptor; HEK-293 membranes
Method: HEK-293 derived cell lines stably expressing cloned human β1 or β2 adrenergic receptors, respectively, were grown to near confluency in DMEM with 10% dialyzed FBS in the presence of 500 μg/mL Geneticin. The cell monolayer was lifted with Versene 1:5,000 (0.2 g/L EDTA in PBS) using a cell scraper. Cells were pelleted by centrifugation at 1,000 rpm, and cell pellets were either stored frozen at −80° C. or membranes were prepared immediately. […] Protein concentration of the membrane suspension was determined by the method of Bradford (Bradford M M., Analytical Biochemistry, 1976, 72, 248-54). […]
Binding assays were performed in 96-well microtiter plates in a total assay volume of 100 μL with 5 μg membrane protein for membranes containing the human β2 adrenergic receptor, or 2.5 μg membrane protein for membranes containing the human 01 adrenergic receptor in assay buffer (75 mM Tris/HCl pH 7.4 @ 25° C., 12.5 mM MgCl2, 1 mM EDTA, 0.2% BSA). […] Non-specific binding was determined in the presence of 10 μM unlabeled alprenolol. […] Filter plates were washed three times with filtration buffer (75 mM Tris/HCl pH 7.4 @4° C., 12.5 mM MgCl2, 1 mM EDTA) to remove unbound radioactivity. […] Binding data were analyzed by nonlinear regression analysis with the GraphPad Prism Software package (GraphPad Software, Inc., San Diego, Calif.) using the 3-parameter model for one-site competition. […]

T1 sequence (P07550 whole entry): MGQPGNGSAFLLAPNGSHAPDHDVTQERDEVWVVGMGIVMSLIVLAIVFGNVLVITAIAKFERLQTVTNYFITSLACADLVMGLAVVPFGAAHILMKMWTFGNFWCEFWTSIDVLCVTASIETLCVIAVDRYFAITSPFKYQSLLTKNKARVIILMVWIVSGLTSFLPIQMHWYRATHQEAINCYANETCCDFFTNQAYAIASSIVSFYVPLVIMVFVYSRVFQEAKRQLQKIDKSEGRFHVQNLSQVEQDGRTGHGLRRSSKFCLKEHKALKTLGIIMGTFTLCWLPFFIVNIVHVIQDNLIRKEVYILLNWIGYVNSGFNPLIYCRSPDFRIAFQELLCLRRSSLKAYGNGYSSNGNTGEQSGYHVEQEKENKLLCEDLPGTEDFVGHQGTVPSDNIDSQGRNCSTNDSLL

- receptor subtype selectivity, ratio Ki(β1)/Ki(β2): about 18
Structure (SMILES): COc1ccc(Oc2ccc(CCNC[C@H](O)c3ccc(O)c4[nH]c(=O)ccc34)cc2)cc1-c1ccccc1 [Example 1, 8-Hydroxy-5-((R)-1-hydroxy-2-{2-[4-(6-methoxybiphenyl-3-yloxy)phenyl]ethylamino}ethyl)-1H-quinolin-2-one]

From patent US7662815B2, “Diaryl ether β2 adrenergic receptor agonists” (Theravance, Inc., priority 2004, dated 2010)
